Where two headings read alike, the source gives them in different places.
Test system: RBCs
Description: RBC binding ranked by MESF (molecules of equivalent soluble fluorescence), or intensity of fluorescent signal measured when RBCs were incubated with a given concentration of peptide.
High=MESF value>1000 fluorescent units
Medium=MESF Value from 300 to 1000 fluorescent units
Low=MESF Value from 15 to 300 fluorescent units

[1] = Table 3, structurally-diverse all-D-peptides

Substance	Classification of RBC binding properties (MESF) (Table 2, 1a analogs)	Classification of RBC binding properties (MESF) [1]	also measured
H-phe-trp-his-pro-trp-ala-ala-ala-tyr-lys-Gly-Gly-Gly-lys(Biotin)-NH2 [Peptide 2b]	High (MESF value>1000 fluorescent units)	–	–
H-phe-trp-his-pro-trp-ala-ala-met-tyr-lys-Gly-Gly-Gly-lys(Biotin)-NH2 [ig]	–	–	Classification of RBC binding properties (MESF) (Table 1, D-Ala scanning of 1a): Does Not Bind (MESF Value below 15 fluorescent units)
H-phe-trp-his-pro-trp-ala-met-met-tyr-lys-Gly-Gly-Gly-cys(trt)-Gly-lys(Biotin)-NH2 [Peptide 2h]	Does Not Bind (MESF Value below 15 fluorescent units)	–	–
H-phe-trp-his-pro-trp-ala-nle-nle-tyr-lys-Gly-Gly-Gly-lys(Biotin)-NH2 [Peptide 2a]	Medium (MESF Value from 300 to 1000 fluorescent units)	–	–
H-phe-trp-his-pro-trp-phe-phe-lys-thr-lys-Gly-Gly-Gly-lys(Biotin)-NH2 [Peptide 3c]	–	Low (MESF Value from 15 to 300 fluorescent units)	–
H-phe-trp-his-L-Pro-trp-ala-met-met-tyr-lys-Gly-Gly-Gly-lys(Biotin)-NH2 [Peptide 2l]	Low (MESF Value from 15 to 300 fluorescent units)	–	–
H-pro-phe-tyr-thr-tyr-his-trp-tyr-ser-lys-Gly-Gly-Gly-lys(Biotin)-NH2 [Peptide 3p]	–	Does Not Bind (MESF Value below 15 fluorescent units)	–
H-leu-trp-his-pro-trp-ala-met-pro-glu-lys-Gly-Gly-Gly-lys(Biotin)-NH2 [Peptide 3m]	–	Low (MESF Value from 15 to 300 fluorescent units)	–
H-phe-trp-his-αMepro-trp-ala-met-met-tyr-lys-Gly-Gly-Gly-lys(Biotin)-NH2 [Peptide 2m]	Does Not Bind (MESF Value below 15 fluorescent units)	–	–
H-ser-Gly-val-asp-thr-tyr-leu-thr-his-lys-Gly-Gly-Gly-lys(Biotin)-NH2 [Peptide 3r]	–	Medium (MESF Value from 300 to 1000 fluorescent units)	–
H-tyr-phe-leu-tyr-leu-pro-tyr-his-thr-lys-Gly-Gly-Gly-lys(Biotin)-NH2 [Peptide 3v]	–	Low (MESF Value from 15 to 300 fluorescent units)	–
H-ser-trp-his-pro-val-trp-Gly-trp-leu-lys-Gly-Gly-Gly-lys(Biotin)-NH2 [Peptide 3g]	–	Low (MESF Value from 15 to 300 fluorescent units)	–
H-phe-trp-val-pro-phe-trp-trp-lys-thr-lys-Gly-Gly-Gly-lys(Biotin)-NH2 [Peptide 3d]	–	Low (MESF Value from 15 to 300 fluorescent units)	–
H-tyr-trp-val-pro-met-trp-val-his-val-lys-Gly-Gly-Gly-lys(Biotin)-NH2 [Peptide 3w]	–	Low (MESF Value from 15 to 300 fluorescent units)	–
H-phe-tyr-tyr-pro-trp-pro-val-thr-tyr-lys-Gly-Gly-Gly-lys(Biotin)-NH2 [Peptide 3k]	–	Does Not Bind (MESF Value below 15 fluorescent units)	–
H-trp-val-pro-Gly-phe-trp-tyr-his-tyr-lys-Gly-Gly-Gly-lys(Biotin)-NH2 [Peptide 3t]	–	Low (MESF Value from 15 to 300 fluorescent units)	–
H-phe-trp-his-pro-trp-ala-met-met-tyr-lys-Gly-Gly-Gly-lys(C18diacid)-lys(Biotin)-NH2 [Peptide 2e]	Medium (MESF Value from 300 to 1000 fluorescent units)	–	–
H-phe-trp-his-pro-trp-ala-met-met-tyr-lys-Gly-Gly-Gly-lys(Biotin)-NH2 [Peptide 1a]	High (MESF value>1000 fluorescent units)	High (MESF value>1000 fluorescent units)	Classification of RBC binding properties (MESF) (Table 1, D-Ala scanning of 1a): High (MESF value>1000 fluorescent units)
H-ala-trp-his-pro-trp-ala-met-met-tyr-lys-Gly-Gly-Gly-lys(Biotin)-NH2 [Peptide 1b]	–	–	Classification of RBC binding properties (MESF) (Table 1, D-Ala scanning of 1a): Low (MESF Value from 15 to 300 fluorescent units)
H-phe-phe-his-val-pro-val-phe-ser-val-lys-Gly-Gly-Gly-lys(Biotin)-NH2 [Peptide 3i]	–	Medium (MESF Value from 300 to 1000 fluorescent units)	–
H-trp-tyr-leu-pro-pro-leu-trp-his-ala-lys-Gly-Gly-Gly-lys(Biotin)-NH2 [Peptide 3u]	–	Does Not Bind (MESF Value below 15 fluorescent units)	–
H-phe-ala-his-pro-trp-ala-met-met-tyr-lys-Gly-Gly-Gly-lys(Biotin)-NH2 [Peptide 1c]	–	–	Classification of RBC binding properties (MESF) (Table 1, D-Ala scanning of 1a): Does Not Bind (MESF Value below 15 fluorescent units)
H-phe-trp-his-NMeGly-trp-ala-met-met-tyr-lys-Gly-Gly-Gly-lys(Biotin)-NH2 [Peptide 2k]	Low (MESF Value from 15 to 300 fluorescent units)	–	–

Substance	Classification of RBC binding properties (MESF) (Table 2, 1a analogs)	Classification of RBC binding properties (MESF) [1]	also measured
H-phe-trp-his-pro-ala-ala-met-met-tyr-lys-Gly-Gly-Gly-lys(Biotin)-NH2 [Peptide 1f]	–	–	Classification of RBC binding properties (MESF) (Table 1, D-Ala scanning of 1a): Does Not Bind (MESF Value below 15 fluorescent units)
H-leu-trp-his-pro-tyr-leu-phe-leu-trp-lys-Gly-Gly-Gly-lys(Biotin)-NH2 [Peptide 3f]	–	Does Not Bind (MESF Value below 15 fluorescent units)	–
H-phe-trp-his-pro-trp-ala-met-met-ala-lys-Gly-Gly-Gly-lys(Biotin)-NH2 [Peptide 1i]	–	–	Classification of RBC binding properties (MESF) (Table 1, D-Ala scanning of 1a): Low (MESF Value from 15 to 300 fluorescent units)
H-phe-trp-ala-pro-trp-ala-met-met-tyr-lys-Gly-Gly-Gly-lys(Biotin)-NH2 [Peptide 1d]	–	–	Classification of RBC binding properties (MESF) (Table 1, D-Ala scanning of 1a): Medium (MESF Value from 300 to 1000 fluorescent units)
H-phe-phe-his-pro-trp-ser-trp-thr-ser-lys-Gly-Gly-Gly-lys(Biotin)-NH2 [Peptide 3a]	–	High (MESF value>1000 fluorescent units)	–
H-phe-trp-ser-pro-trp-ala-met-met-tyr-lys-Gly-Gly-Gly-lys(Biotin)-NH2 [Peptide 2i]	Low (MESF Value from 15 to 300 fluorescent units)	–	–
H-met-phe-his-pro-phe-ala-phe-met-tyr-lys-Gly-Gly-Gly-lys(Biotin)-NH2 [Peptide 3o]	–	Medium (MESF Value from 300 to 1000 fluorescent units)	–
H-ala-pro-met-phe-tyr-trp-lys-his-met-trp-Gly-Gly-Gly-lys(Biotin)-NH2 [Peptide 2f]	Low (MESF Value from 15 to 300 fluorescent units)	–	–
H-phe-trp-his-pro-trp-ala-met-met-tyr-ala-Gly-Gly-Gly-lys(Biotin)-NH2 [Peptide 1j]	–	–	Classification of RBC binding properties (MESF) (Table 1, D-Ala scanning of 1a): High (MESF value>1000 fluorescent units)
H-pro-his-his-pro-phe-ala-leu-phe-leu-lys-Gly-Gly-Gly-lys(Biotin)-NH2 [Peptide 3q]	–	Medium (MESF Value from 300 to 1000 fluorescent units)	–
H-val-phe-his-pro-phe-trp-Gly-tyr-phe-lys-Gly-Gly-Gly-lys(Biotin)-NH2 [Peptide 3s]	–	Does Not Bind (MESF Value below 15 fluorescent units)	–
H-phe-trp-his-ala-trp-ala-met-met-tyr-lys-Gly-Gly-Gly-lys(Biotin)-NH2 [Peptide 1e]	–	–	Classification of RBC binding properties (MESF) (Table 1, D-Ala scanning of 1a): High (MESF value>1000 fluorescent units)
H-phe-phe-his-pro-phe-ala-trp-phe-his-lys-Gly-Gly-Gly-lys(Biotin)-NH2 [Peptide 3h]	–	Low (MESF Value from 15 to 300 fluorescent units)	–
H-phe-trp-his-pro-trp-ala-met-ala-tyr-lys-Gly-Gly-Gly-lys(Biotin)-NH2 [Peptide 1h]	–	–	Classification of RBC binding properties (MESF) (Table 1, D-Ala scanning of 1a): Low (MESF Value from 15 to 300 fluorescent units)
H-leu-trp-ser-pro-val-phe-phe-phe-pro-lys-Gly-Gly-Gly-lys(Biotin)-NH2 [Peptide 3n]	–	Does Not Bind (MESF Value below 15 fluorescent units)	–
H-phe-phe-his-pro-tyr-Gly-leu-phe-val-lys-Gly-Gly-Gly-lys(Biotin)-NH2 [Peptide 3b]	–	Medium (MESF Value from 300 to 1000 fluorescent units)	–
H-phe-trp-tyr-val-his-thr-thr-Gly-trp-lys-Gly-Gly-Gly-lys(Biotin)-NH2 [Peptide 3j]	–	Does Not Bind (MESF Value below 15 fluorescent units)	–
H-phe-trp-tyr-pro-trp-ala-met-met-tyr-lys-Gly-Gly-Gly-lys(Biotin)-NH2 [Peptide 2j]	Low (MESF Value from 15 to 300 fluorescent units)	–	–
Ac-phe-trp-his-pro-trp-ala-met-met-tyr-lys-Gly-Gly-Gly-lys(Biotin)-NH2 [Peptide 2g]	Does Not Bind (MESF Value below 15 fluorescent units)	–	–
H-leu-phe-his-pro-trp-pro-ala-phe-pro-lys-Gly-Gly-Gly-lys(Biotin)-NH2 [Peptide 3l]	–	High (MESF value>1000 fluorescent units)	–
H-phe-trp-his-pro-trp-ala-met-met-tyr-lys-Gly-Gly-Gly-(H-phe-trp-his-pro-trp-ala-met-met-tyr-lys-Gly-Gly-Gly)-lys-Gly-Gly-lys(Biotin)-NH2 [Peptide 2d]	High (MESF value>1000 fluorescent units)	–	–
H-leu-his-his-pro-trp-pro-tyr-phe-tyr-lys-Gly-Gly-Gly-lys(Biotin)-NH2 [Peptide 3e]	–	Low (MESF Value from 15 to 300 fluorescent units)	–
H-phe-trp-his-pro-trp-ala-leu-leu-tyr-lys-Gly-Gly-Gly-lys(Biotin)-NH2 [Peptide 2c]	Does Not Bind (MESF Value below 15 fluorescent units)	–	–

— patent publication US20230173086A1, “PEPTIDE CONJUGATES AND THERAPEUTIC AGENTS HAVING IMPROVED PHARMACOLOGICAL AND PHARMACOKINETIC PROPERTIES” (Resolute Bio, Inc., priority 2021, published 2023)
